For test [1], the system named is HS-PSS. The test is described as follows: % inhibition of CellTiter-Glo viability at highest tested concentration (72 h), relative to DMSO and benzethonium chloride controls; higher = more inhibition. The essentials: (§1)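 Viability was scored by CellTiter-Glo ATP luminescence, scaled from vehicle to positive-control wells, with duplicates averaged where present. The cells, MPNST lines and primary human Schwann cells at 750–1000 per well, sat 72 h at 37 °C, 5% CO2, in 384-well plates preprinted with each compound at five concentrations in 10-fold steps. Four-parameter logistic fits were run on the data. These fits give drug sensitivity score and relative IC50 censored at the top concentration, and percent inhibition is reported at the top concentration.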
A general note: Cellular ATP, detected with luciferase, serves as a proxy for viable cell number.

The subject of test [2] is S1507-2. The description is as above. The gist of the method: as §1
Test [3] has as its system STS26T. Described as above. The essentials:
as §1

The test system of test [4] is HSC2 (primary human Schwann cells). The test is described as above. The essentials: as §1
Test [5] relates to ST8814. The description is as above. The essentials: as §1
The test system of test [6] is YST-1. The test is described as above. The essentials: as §1
Test [7] relates to S462. The test is described as above. The gist of the method: as §1
Test [8] concerns HSC1 (primary human Schwann cells). The test is described as above. The essentials:
as §1

Test [9] concerns HS-Sch-2. The test is described as above. The essentials: as §1
The test system of test [10] is HS-PSS. The test is described as follows: drug sensitivity score (DSS, CellTiter-Glo viability, 72 h) (DSS (dimensionless)); higher = more sensitive; extreme values may be limits of the assay. The gist of the method: as §1
Test [11] has as its system S1507-2. Described as above. The essentials: as §1
Test [12] relates to STS26T. The description is as above. The essentials: as §1
The test system of test [13] is HSC2 (primary human Schwann cells). Described as above. The gist of the method:
as §1

Test [14] concerns ST8814. The description is as above. The essentials:
as §1

Test [15] has as its system YST-1. Described as above. The gist of the method: as §1
The subject of test [16] is S462. Described as above. The gist of the method:
as §1

Test [17] concerns HSC1 (primary human Schwann cells). Described as above. The gist of the method:
as §1

Test [18] concerns HS-Sch-2. The description is as above. The gist of the method: as §1
Test [19] has as its system HS-PSS. The test is described as follows: drug sensitivity score (DSS, CellTox-Green cytotoxicity, 72 h) (DSS (dimensionless)); higher = more cytotoxic; extreme values may be limits of the assay. The gist of the method: (§2)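 MPNST cell lines and primary human Schwann cells were incubated 72 h at 37 °C in 384-well plates holding five 10-fold compound dilutions. CellTox-Green was added before seeding at a final 1:1000 dilution and reported fluorescence from DNA released by disrupted cells. Signals were scaled to vehicle and positive-control wells, and cultures failing plate quality control were dropped. Drug sensitivity score and relative IC50 come from four-parameter logistic fits, with IC50 censored at the top concentration.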

In test [20] the test system is S1507-2. The description is as above. The gist of the method:
as §2

For test [21], the system named is STS26T. Described as above. The essentials:
as §2

The test system of test [22] is HSC2 (primary human Schwann cells). Described as above. The gist of the method: as §2
For test [23], the system named is ST8814. Described as above. The essentials: as §2
Test [24] deals with HSC1 (primary human Schwann cells). Described as above. The essentials:
as §2

± gives the standard deviation of the averaged measurements.

This note sets out measurements from the supplement of paper PMC5579334.

One may read the % inhibition as the relative decrease from the control value, in per cent. In the case of `C[C@]12CC[C@H](O)CC1=CC[C@@H]1[C@@H]2CC[C@]2(C)C(c3cccnc3)=CC[C@@H]12` [Abiraterone] (max concentration tested 5000 nM), the “% inhibition” value was -3.84% in the test on HS-PSS [1]; 17.1 ± 2.1% in the test on S1507-2 [2]; 3.38% with STS26T [3]; 18.7% in [4]; 4.42% with ST8814 [5]; 5.69% in the test with YST-1 [6]. The “% inhibition” value in the test on S462 [7] came out at 7.79 ± 0.37%; in test [8], 12.6%; in the test on HS-Sch-2 [9] it was 3.26%. The drug sensitivity score in the test on HS-PSS [10] worked out at 0; in the test on S1507-2 [11] it was 1.83 ± 2; in the test on STS26T [12], 0; in test [13], 1.01; with ST8814 [14], 0; in the test on YST-1 [15], 0. For the same compound, the drug sensitivity score in the test with S462 [16] came out at 0.775 ± 0.16; in test [17] it was 0.394; with HS-Sch-2 [18], 0; with HS-PSS [19], 0; in the test on S1507-2 [20], 0.133 ± 0.19; with STS26T [21], 0. The drug sensitivity score (in test [22]; in the test with ST8814 [23]; in test [24]) was 0 throughout.
As for `CN(C)C/C=C/C(=O)Nc1cc2c(Nc3ccc(F)c(Cl)c3)ncnc2cc1O[C@H]1CCOC1` [Afatinib] (max concentration tested 1000 nM), the “% inhibition” value in the test with HS-PSS [1] came to 29.9%; in the test on S1507-2 [2], 11.6 ± 4.3%; in the test with STS26T [3], 12.7%; in [4], 3.38%; with ST8814 [5], 3.12%; with YST-1 [6], 3.62%. The “% inhibition” value is 2.97 ± 6.7% in the test with S462 [7], 8.81% in test [8] and 21.2% in the test on HS-Sch-2 [9]. Also, the drug sensitivity score in the test with HS-PSS [10] came to 2.49; in the test on S1507-2 [11], 1.88 ± 2.7; with STS26T [12], 0; in test [13], 0; in the test on ST8814 [14], 0; with YST-1 [15], 0. In addition, the drug sensitivity score in the test on S462 [16] worked out at 0; in test [17] it was 0; in the test on HS-Sch-2 [18], 1.58; in the test with HS-PSS [19], 0; in the test with S1507-2 [20], 0; with STS26T [21], 0. Moreover, the drug sensitivity score (in [22]; in the test with ST8814 [23]; in test [24]) was 0 throughout.
With `COc1cc(Nc2ncc3c(n2)-c2ccc(Cl)cc2C(c2c(F)cccc2OC)=NC3)ccc1C(=O)O` [Alisertib] (max concentration tested 10000 nM), the “% inhibition” value amounted to 44.7% in the test on HS-PSS [1]; 50.5 ± 5.3% in the test on S1507-2 [2]; 58.4% with STS26T [3]; 57.6% in test [4]; 59.4% with ST8814 [5]; 47.5% in the test on YST-1 [6]. Besides, the results for the “% inhibition” value (with S462 [7]; in test [8]; in the test with HS-Sch-2 [9]) were 59.1 ± 1%, 65.5% and 64.5%, respectively. Besides, the drug sensitivity score was found to be 3.93 in the test with HS-PSS [10]; 11.77 ± 0.033 in the test with S1507-2 [11]; 14.9 in the test on STS26T [12]; 17.5 in [13]; 10.5 with ST8814 [14]; 15 with YST-1 [15]. The drug sensitivity score was found to be 18.8 ± 1.3 in the test on S462 [16]; 16.7 in test [17]; 11.3 in the test on HS-Sch-2 [18]; 0 in the test with HS-PSS [19]; 4.28 ± 3.2 in the test with S1507-2 [20]; 18.8 with STS26T [21]. The drug sensitivity score in [22] turned out to be 0; in the test on ST8814 [23], 7.04; in [24] it was 0.
Regarding `Oc1ncnc2[nH]ncc12` [Allopurinol] (max concentration tested 10000 nM), the “% inhibition” value is 6.72% in the test on HS-PSS [1]; -4.6 ± 1.9% with S1507-2 [2]; 6.65% in the test with STS26T [3]; 1.63% in [4]; -3.79% with ST8814 [5]; 8.22% in the test on YST-1 [6]. The “% inhibition” value in the test on S462 [7] was -1.67 ± 0.31%; in test [8], 5.09%; with HS-Sch-2 [9] it was 8.43%. Further, the drug sensitivity score (in the test with HS-PSS [10]; in the test on S1507-2 [11]; in the test on STS26T [12]; in [13]; in the test on ST8814 [14]; with YST-1 [15]) was 0 each time. The drug sensitivity score (in the test with S462 [16]; in [17]; with HS-Sch-2 [18]; with HS-PSS [19]; in the test on S1507-2 [20]; with STS26T [21]) was 0 each time. The drug sensitivity score (in test [22]; in the test with ST8814 [23]; in [24]) was 0 throughout.
For the compound `CN(C)c1nc(N(C)C)nc(N(C)C)n1` [Altretamine] (max concentration tested 10000 nM), the “% inhibition” value was -1.71% in the test on HS-PSS [1]; -7.42 ± 0.53% in the test with S1507-2 [2]; 5.66% with STS26T [3]; -0.459% in test [4]; -6.95% in the test on ST8814 [5]; 9.76% with YST-1 [6]. The results for the “% inhibition” value (in the test on S462 [7]; in [8]; in the test with HS-Sch-2 [9]) were -12.7 ± 1.5%, 6.31% and -1.37%, respectively. The drug sensitivity score (in the test with HS-PSS [10]; in the test on S1507-2 [11]; with STS26T [12]; in test [13]; with ST8814 [14]; in the test with YST-1 [15]) was 0 in each case. Moreover, the drug sensitivity score in the test on S462 [16] came out at 0; in [17] it was 0; in the test with HS-Sch-2 [18], 0; in the test on HS-PSS [19], 0; with S1507-2 [20] it was 0.0018 ± 0.0026; in the test with STS26T [21] it was 0. The drug sensitivity score (in test [22]; with ST8814 [23]; in test [24]) was 0 throughout.
With `CO[C@H]1/C=C\C=C(/C)C(=O)NC2=CC(=O)C(NCCN(C)C)=C(C[C@@H](C)C[C@H](OC)[C@H](O)[C@@H](C)/C=C(\C)[C@@H]1OC(N)=O)C2=O` [Alvespimycin] (max concentration tested 1000 nM), the “% inhibition” value stood at 85.3% in the test with HS-PSS [1]; 95.7 ± 2.9% with S1507-2 [2]; 91.8% with STS26T [3]; 96.2% in [4]; 98.8% with ST8814 [5]; 78.2% in the test with YST-1 [6]. Besides, the “% inhibition” value with S462 [7] came to 99.51 ± 0.13%; in test [8], 98.1%; with HS-Sch-2 [9], 100%. Further, the drug sensitivity score stood at 13.8 in the test on HS-PSS [10]; 12.3 ± 0.18 in the test with S1507-2 [11]; 12.5 with STS26T [12]; 9.75 in [13]; 14.6 in the test on ST8814 [14]; 15.4 with YST-1 [15]. Besides, the drug sensitivity score stood at 15.4 ± 0.78 in the test on S462 [16]; 10 in [17]; 15.8 in the test with HS-Sch-2 [18]; 3.83 with HS-PSS [19]; 7.17 ± 1.2 in the test with S1507-2 [20]; 7.8 with STS26T [21]. Also, the drug sensitivity score was found to be 8.36 in test [22], 6.78 in the test on ST8814 [23] and 8.04 in test [24].
